Test results taken from PubChem BioAssay AID1963864 (Molecular Pharmacology Branch, DTP, NCI, 2024).
pIC50: −log10 of the molar value.

System: KRAS PDC multicell spheroid viability
Assay: Anticancer human tumor 521955-158-R6-J3-PDC patient-derived pancreatic carcinoma cell line growth inhibition [KRAS2]
Conditions: for pIC50: curve of first compound; for viability, T/C: stronger effect = lower value
How it was run: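 KRAS-mutant tumor cells were grown as spheroids with HUVEC endothelial cells and human MSCs as stroma. Targeted agents were tested alone and with KRAS pathway inhibitors. Doses started at or near clinical Cmax, or 10 microM, descending half-log.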

[1] = second compound 0.1 µM, first compound 0.0316 µM
[2] = second compound 0.1 µM, first compound 0.1 µM
[3] = second compound 0.1 µM, first compound 0.316 µM
[4] = second compound 0.1 µM, first compound 1 µM
[5] = second compound 0.1 µM, first compound 3.16 µM
[6] = second compound 0.1 µM, first compound 10 µM
[7] = second compound 0.316 µM, first compound 0.0316 µM
[8] = second compound 0.316 µM, first compound 0.1 µM
[9] = second compound 0.316 µM, first compound 0.316 µM
[10] = second compound 0.316 µM, first compound 1 µM
[11] = second compound 0.316 µM, first compound 3.16 µM
[12] = second compound 0.316 µM, first compound 10 µM
[13] = second compound 1 µM, first compound 0.0316 µM
[14] = second compound 1 µM, first compound 0.1 µM
[15] = second compound 1 µM, first compound 0.316 µM
[16] = second compound 1 µM, first compound 1 µM
[17] = second compound 1 µM, first compound 3.16 µM
[18] = second compound 1 µM, first compound 10 µM
[19] = second compound 3.16 µM, first compound 0.0316 µM
[20] = second compound 3.16 µM, first compound 0.1 µM
[21] = second compound 3.16 µM, first compound 0.316 µM
[22] = second compound 3.16 µM, first compound 1 µM
[23] = second compound 3.16 µM, first compound 3.16 µM
[24] = second compound 3.16 µM, first compound 10 µM
[25] = second compound 10 µM, first compound 0.0316 µM
[26] = second compound 10 µM, first compound 0.1 µM
[27] = second compound 10 µM, first compound 0.316 µM
[28] = second compound 10 µM, first compound 1 µM
[29] = second compound 10 µM, first compound 3.16 µM
[30] = second compound 10 µM, first compound 10 µM
[31] = second compound 0.1 µM, first compound 0.00316 µM
[32] = second compound 0.1 µM, first compound 0.01 µM
[33] = second compound 0.316 µM, first compound 0.00316 µM
[34] = second compound 0.316 µM, first compound 0.01 µM
[35] = second compound 1 µM, first compound 0.00316 µM
[36] = second compound 1 µM, first compound 0.01 µM
[37] = second compound 3.16 µM, first compound 0.00316 µM
[38] = second compound 3.16 µM, first compound 0.01 µM
[39] = second compound 10 µM, first compound 0.00316 µM
[40] = second compound 10 µM, first compound 0.01 µM
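Note: drug exposure lasted seven days.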
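Throughout, for viability, T/C: 100% = DMSO vehicle wells and lower means fewer viable cells.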

Row | SMILES | pIC50 (second compound 0.1 µM) | pIC50 (second compound 0.316 µM) | pIC50 (second compound 1 µM) | pIC50 (second compound 3.16 µM) | pIC50 (second compound 10 µM) | viability, T/C [1] [%] | viability, T/C [2] [%] | viability, T/C [3] [%] | viability, T/C [4] [%] | viability, T/C [7] [%] | viability, T/C [8] [%] | viability, T/C [9] [%] | viability, T/C [10] [%] | viability, T/C [13] [%] | viability, T/C [14] [%] | viability, T/C [15] [%] | viability, T/C [19] [%] | viability, T/C [20] [%] | viability, T/C [25] [%] | viability, T/C [26] [%] | further results
1 | CC(C)NCC(C(=O)N1CCN(c2ncnc3c2C(C)CC3O)CC1)c1ccc(Cl)cc1 (stereo not given) + CC1OCC2(CCN(c3cnc(Sc4ccnc(N)c4Cl)c(N)n3)CC2)C1N | < 5.00 | < 5.00 | < 5.00 | 5.87 | 6.19 | 86.9 | 77.1 | 68.8 | 68.7 | 84.3 | 71.4 | 61.1 | 63.5 | 78.1 | 74.6 | 60.7 | 86.9 | 78.7 | 102 | 73.8 | viability, T/C [5]: 61.7%; viability, T/C [6]: 56%; viability, T/C [11]: 60.2%; viability, T/C [12]: 48.9%; viability, T/C [16]: 54.7%; viability, T/C [17]: 50.9%; viability, T/C [18]: 51.7%; viability, T/C [21]: 59.7%; viability, T/C [22]: 53%; viability, T/C [23]: 47.5%; viability, T/C [24]: 43.3%; viability, T/C [27]: 56.7%; viability, T/C [28]: 43.9%; viability, T/C [29]: 44.2%; viability, T/C [30]: 34.1%
2 | CC1(C)CCC(CN2CCN(c3ccc(C(=O)NS(=O)(=O)c4ccc(NCC5CCOCC5)c([N+](=O)[O-])c4)c(Oc4cnc5[nH]ccc5c4)c3)CC2)=C(c2ccc(Cl)cc2)C1 + CC1OCC2(CCN(c3cnc(Sc4ccnc(N)c4Cl)c(N)n3)CC2)C1N | 5.15 | 5.24 | 5.26 | 5.36 | 5.55 | 96 | 89.7 | 95.3 | 77.6 | 86.2 | 98.2 | 89 | 87 | 102 | 94.7 | 103 | 115 | 120 | 107 | 109 | viability, T/C [5]: 70.5%; viability, T/C [6]: 41.3%; viability, T/C [11]: 62%; viability, T/C [12]: 39.3%; viability, T/C [16]: 99%; viability, T/C [17]: 71.1%; viability, T/C [18]: 27.3%; viability, T/C [21]: 121%; viability, T/C [22]: 116%; viability, T/C [23]: 64.2%; viability, T/C [24]: 13.1%; viability, T/C [27]: 114%; viability, T/C [28]: 107%; viability, T/C [29]: 44.3%; viability, T/C [30]: 3.41%
3 | CCN1CCN(Cc2ccc(Nc3ncc(F)c(-c4cc(F)c5nc(C)n(C(C)C)c5c4)n3)nc2)CC1 + CC1OCC2(CCN(c3cnc(Sc4ccnc(N)c4Cl)c(N)n3)CC2)C1N | < 6.00 | < 6.00 | < 6.00 | < 6.00 | < 6.00 | 73 | 68.4 | 76 | 88.2 | 82.3 | 69.2 | 71.8 | 85.3 | 97 | 82.1 | 78.8 | 84.4 | 78.7 | 111 | 114 | viability, T/C [31]: 81.3%; viability, T/C [32]: 79.9%; viability, T/C [33]: 101%; viability, T/C [34]: 84.1%; viability, T/C [35]: 94.5%; viability, T/C [36]: 91.2%; viability, T/C [16]: 90.1%; viability, T/C [37]: 113%; viability, T/C [38]: 109%; viability, T/C [21]: 83.6%; viability, T/C [22]: 115%; viability, T/C [39]: 118%; viability, T/C [40]: 116%; viability, T/C [27]: 95.1%; viability, T/C [28]: 86.7%
4 | Cn1ncnc1[C@H]1c2n[nH]c(=O)c3cc(F)cc(c23)N[C@@H]1c1ccc(F)cc1 + CC1OCC2(CCN(c3cnc(Sc4ccnc(N)c4Cl)c(N)n3)CC2)C1N | < 7.00 | < 7.00 | < 7.00 | < 7.00 | < 7.00 | 79.5 | 77.2 |  |  | 79.2 | 78.2 |  |  | 82.9 | 86.4 |  | 96.2 | 82 | 100 | 97.9 | viability, T/C (second compound 0.1 µM, first compound 0.000316 µM): 86.7%; viability, T/C (second compound 0.1 µM, first compound 0.001 µM): 91%; viability, T/C [31]: 78.5%; viability, T/C [32]: 83.2%; viability, T/C (second compound 0.316 µM, first compound 0.000316 µM): 93.3%; viability, T/C (second compound 0.316 µM, first compound 0.001 µM): 76.7%; viability, T/C [33]: 81.5%; viability, T/C [34]: 80.2%; viability, T/C (second compound 1 µM, first compound 0.000316 µM): 83.6%; viability, T/C (second compound 1 µM, first compound 0.001 µM): 82%; viability, T/C [35]: 79%; viability, T/C [36]: 78%; viability, T/C (second compound 3.16 µM, first compound 0.000316 µM): 99.8%; viability, T/C (second compound 3.16 µM, first compound 0.001 µM): 95.6%; viability, T/C [37]: 96.3%; viability, T/C [38]: 106%; viability, T/C (second compound 10 µM, first compound 0.000316 µM): 105%; viability, T/C (second compound 10 µM, first compound 0.001 µM): 103%; viability, T/C [39]: 95%; viability, T/C [40]: 103%
